Source: patent publication US9456599B2, “Adjuvants” (SYNGENTA LIMITED, priority 2012, dated 2016)

Experiments:
Format in all cases: in vivo
Septoria tritici [1] = experiment: Septoria tritici on wheat, isopyrazam with B92-P-/B96-P-carbonate (Example 10); settings: wheat leaf area infected 14 days after spray; isopyrazam 3, 10, 30 and 100 mg/l, adjuvant 0.1% by volume; mean over four rates, twelve replicates
Protocol: Wheat plants were inoculated with the fungus Septoria tritici. Four days after inoculation the plants were sprayed with a diluted suspension concentrate formulation of the fungicide isopyrazam at rates of 3, 10, 30 and 100 mg of the fungicide per liter of spray solution, using a laboratory track sprayer which delivered the spray at a rate of 200 liters per hectare. Spray tests were also carried out with diluted suspension concentrates additionally comprising the carbonates B92-P-carbonate and B96-P-carbonate (see Table 1) which were added to the spray solution at a rate of 0.1% v/v, based on the quantity of spray liquor. The leaves of the plants were assessed visually 14 days after the spray application and the damage was expressed as the percentage of the leaf area infected. Each spray test was replicated twelve times across the four application rates.
(§1) The results shown in Table 15 below are mean averages over the four rates of isopyrazam and the twelve replicates, and are compared to the efficacy of isopyrazam in the absence of an adjuvant, and isopyrazam in the presence of oleyl ethoxylate 20EO butyl end capped which was used as a standard for comparative purposes (at 0.1% by volume).

Septoria tritici [2] = experiment: Septoria tritici on wheat, isopyrazam with compound E (Example 8); settings: wheat leaf area infected 12 days after spray; isopyrazam 3, 10, 30 and 100 mg/l, adjuvant 0.1% by volume; mean over four rates, four replicates
Protocol: Wheat plants were inoculated with the fungus Septoria tritici. Four days after inoculation the plants were sprayed with a diluted suspension concentrate formulation of the fungicide isopyrazam at rates of 3, 10, 30 and 100 mg of the fungicide per liter of spray solution, using a laboratory track sprayer which delivered the spray at a rate of 200 liters per hectare. Spray tests were also carried out with a diluted suspension concentrate additionally comprising the carbonate compound E (see Table 7) added to the spray solution at a rate of 0.1% v/v, based on the quantity of spray liquor. The leaves of the plants were assessed visually 12 days after the spray application and the damage was expressed as the percentage of the leaf area infected. Each spray test was replicated four times across the four application rates.
as §1, with “13” for “15”, “four” for “twelve”, “adjuvant” for “which was”, “standard adjuvant” for “standard”

[3] = tested on: Brachiaria plantaginea, Digitaria sanguinalis, Commelina benghalensis and Polygonum convulvulus; experiment: Glasshouse spray test, mesotrione with carbonates A-D (Example 6), mean over four plant species; settings: Table 10: mesotrione 30 or 60 g/ha, compounds A-D 0.2%, Tween + Rhodasurf 0.5%; 25 days; mean over rates, replicates, four species
Protocol: (§2) Brachiaria plantaginea, Digitaria sanguinalis, Commelina benghalensis and Polygonum convulvulus seeds were sown into standard soil in pots and cultivated under controlled conditions in a glasshouse (at 24/18° C. day/night; 16 hours light; 65% humidity).
When the plants were at the vegetative stage of 2-4 leaves they were sprayed with an aqueous spray solution containing the herbicide mesotrione and 0.2% v/v of one of the carbonates A, B, C and D (see Table 7).
(§3) The spray solution was applied with a cabinet tracksprayer with a flat fan nozzle (Teejet 11002VS) and an application volume of 200 liter/ha (at 2 bar). Mesotrione was applied at either 30 or 60 grams of pesticide per hectare.
(§4) The test plants were then grown on, in a glasshouse under controlled conditions (at 24/18° C. day/night; 16 hours light; 65% humidity) and watered twice a day. After 25 days the test was evaluated for general crop injury or phytotoxicity (100% equals total damage to a plant; 0% equals no damage to a plant).
(§5) The results shown in Table 10 below are mean averages over the two rates of mesotrione, the three replicates and the four plant species and are compared to the efficacy of mesotrione in the absence of an adjuvant, and mesotrione in the presence of the commercially available tank-mix adjuvant, Tween 20 ®+Rhodasurf DA/630-E® (combined in a 2:1 ratio) at 0.5% by volume.

Brachiaria plantaginea = experiment: Glasshouse post-emergence spray test, mesotrione with adjuvant (Example 3); settings: mesotrione 30 or 60 g/ha, carbonate 0.2% or 0.5% Tween 20 + Rhodasurf DA/630-E; mean over two rates, three replicates, 14 and 21 days
Protocol: as §2
(§6) When the plants were at the vegetative stage of 2-4 leaves they were sprayed with an aqueous spray solution containing the herbicide mesotrione and 0.2% v/v of one of the carbonates B92-P-Carbonate, B92-B-Carbonate and B96-P-Carbonate (see Table 1).
as §3
(§7) The test plants were then grown on, in a glasshouse under controlled conditions (at 24/18° C. day/night; 16 hours light; 65% humidity) and watered twice a day. After 14 and 21 days the test was evaluated for general crop injury (100% equals total damage to a plant; 0% equals no damage to a plant).
as §5, with “5” for “10”, “mesotrione,” for “mesotrione, the”, “two assessment timings,” for “four plant species”, “(2:1” for “(combined”, “water).” for “a 2:1 ratio) at 0.5% by volume.”

Commelina benghalensis = experiment: as above; settings: mesotrione 30 or 60 g/ha, carbonate 0.2% or 0.5% Tween 20 + Rhodasurf DA/630-E; mean over two rates, three replicates, 14 and 21 days
Protocol: as §2, §6, §3, §7
as §5, with “5” for “10”, “mesotrione,” for “mesotrione, the”, “two assessment timings,” for “four plant species”, “(2:1” for “(combined”, “water).” for “a 2:1 ratio) at 0.5% by volume.”

Polygonum convulvulus = experiment: as above; settings: mesotrione 30 or 60 g/ha, carbonate 0.2% or 0.5% Tween 20 + Rhodasurf DA/630-E; mean over two rates, three replicates, 14 and 21 days
Protocol: as §2, §6, §3, §7
as §5, with “5” for “10”, “mesotrione,” for “mesotrione, the”, “two assessment timings,” for “four plant species”, “(2:1” for “(combined”, “water).” for “a 2:1 ratio) at 0.5% by volume.”

Digitaria sanguinalis = experiment: as above; settings: mesotrione 30 or 60 g/ha, carbonate 0.2% or 0.5% Tween 20 + Rhodasurf DA/630-E; mean over two rates, three replicates, 14 and 21 days
Protocol: as §2, §6, §3, §7
as §5, with “5” for “10”, “mesotrione,” for “mesotrione, the”, “two assessment timings,” for “four plant species”, “(2:1” for “(combined”, “water).” for “a 2:1 ratio) at 0.5% by volume.”

[4] = tested on: Brachiaria plantaginea, Digitaria sanguinalis, Commelina benghalensis and Polygonum convulvulus; experiment: Glasshouse post-emergence spray test, mesotrione with adjuvant (Example 3), mean across species; settings: mesotrione 30 or 60 g/ha, carbonate 0.2% or 0.5% Tween 20 + Rhodasurf DA/630-E; 14 and 21 days; Tukey HSD letter
Protocol: as §2, §6, §3, §7
as §5, with “5” for “10”, “mesotrione,” for “mesotrione, the”, “two assessment timings,” for “four plant species”, “(2:1” for “(combined”, “water).” for “a 2:1 ratio) at 0.5% by volume.”

[5] = tested on: Avena fatua, Lolium perenne, Setaria viridis and Alopecurus myosuroides; experiment: Glasshouse spray test, pinoxaden with carbonates A-E (Example 7), mean over four plant species; settings: 22 days, mean over rates, replicates, four species
Protocol: (§8) Avena fatua, Lolium perenne, Setaria viridis and Alopecurus myosuroides seeds were sown into standard soil in pots and cultivated under controlled conditions in a glasshouse (at 20/16° C. day/night; 15 hours light; 65% humidity).
When the plants were at the vegetative stage of 2-3 leaves they were sprayed with an aqueous spray solution containing the herbicide pinoxaden and 0.2% v/v of one of the carbonates A, B, C, D and E (see Table 7).
(§9) The spray solution was applied with a cabinet tracksprayer with a flat fan nozzle (Teejet 11002VS) and an application volume of 200 liter/ha (at 2 bar). Pinoxaden was applied at either 7.5 or 15 grams of pesticide per hectare.
as §4, with “on.” for “on,”, “22” for “25”
The results shown in Table 11 below are mean averages over the two rates of pinoxaden, the three replicates and the four plant species, and are compared to the efficacy of pinoxaden in the absence of an adjuvant, and pinoxaden in the presence of tris(2-ethylhexyl)phosphate, used as a standard adjuvant for comparative purposes (at 0.2% by […] volume).

[6] = tested on: Avena fatua, Lolium perenne, Setaria viridis and Alopecurus myosuroides; experiment: Glasshouse post-emergence spray test, pinoxaden with adjuvant (Example 4), mean across species; settings: pinoxaden 7.5 or 15 g/ha, adjuvant 0.2%; 14 and 21 days; Tukey HSD letter
Source text: (§10) When the plants were at the vegetative stage of 2-3 leaves they were sprayed with an aqueous spray solution containing the herbicide pinoxaden and 0.2% v/v of one of the carbonates B92-P-Carbonate, B92-B-Carbonate and B96-P-Carbonate (see Table 1).
as §9, with “hectare. […] After 14 and 21 days the test was evaluated for general crop injury (100% equals total damage to a plant; 0% equals no damage to a plant).” for “hectare.”

Setaria viridis = experiment: Glasshouse post-emergence spray test, pinoxaden with adjuvant (Example 4); settings: pinoxaden 7.5 or 15 g/ha, adjuvant 0.2%; mean over two rates, three replicates, 14 and 21 days
Protocol: as §8, §10
(§11) The spray solution was applied with a cabinet tracksprayer with a flat fan nozzle (Teejet 11002VS) and an application volume of 200 liter/ha (at 2 bar). Pinoxaden was applied at either 7.5 or 15 grams of pesticide per hectare. The test plants were then grown on in a glasshouse under controlled conditions (at 24/18° C. day/night; 16 hours light; 65% humidity) and watered twice a day. After 14 and 21 days the test was evaluated for general crop injury (100% equals total damage to a plant; 0% equals no damage to a plant).
The results shown in Table 6 below are mean averages over the two rates of pinoxaden, three replicates and the two assessment timings, and are compared to the efficacy of pinoxaden in the absence of an adjuvant, and pinoxaden in the presence of the tris(2-ethylhexyl)phosphate [TEHP, used as a standard, for comparative purposes] (at 0.2% by volume).

Lolium perenne = experiment: as above; settings: pinoxaden 7.5 or 15 g/ha, adjuvant 0.2%; mean over two rates, three replicates, 14 and 21 days
Source text: as §10
as §11, with “The test plants were then grown on in a glasshouse under controlled conditions (at 24/18° C. day/night; 16 hours light; 65% humidity) and watered twice a day.” left out

Avena fatua = experiment: as above; settings: pinoxaden 7.5 or 15 g/ha, adjuvant 0.2%; mean over two rates, three replicates, 14 and 21 days
Source text: as §10
as §11, with “The test plants were then grown on in a glasshouse under controlled conditions (at 24/18° C. day/night; 16 hours light; 65% humidity) and watered twice a day.” left out

Alopecurus myosuroides = experiment: as above; settings: pinoxaden 7.5 or 15 g/ha, adjuvant 0.2%; mean over two rates, three replicates, 14 and 21 days
Source text: as §10
as §11, with “The test plants were then grown on in a glasshouse under controlled conditions (at 24/18° C. day/night; 16 hours light; 65% humidity) and watered twice a day.” left out

CC(C)C1C2CCC1c1c(NC(=O)c3cn(C)nc3C(F)F)cccc12 (stereo not drawn) [Isopyrazam]
Mean % infection (Septoria tritici [1]): 76.9% | Mean % infection (Septoria tritici [2]): 65.1%

CS(=O)(=O)c1ccc(C(=O)C2C(=O)CCCC2=O)c([N+](=O)[O-])c1 [Mesotrione]
Mean % Phytotoxicity [3]: 33.71% | Mean percentage kill BRAPL (Brachiaria plantaginea): 1.7% | Mean percentage kill COMBEN (Commelina benghalensis): 53.3% | Mean percentage kill POLCONV (Polygonum convulvulus): 70.8% | Mean percentage kill DIGSA (Digitaria sanguinalis): 44.2% | Mean percentage kill, Mean across species [4]: 42.5 B %

CCc1cc(C)cc(CC)c1-c1c(OC(=O)C(C)(C)C)n2n(c1=O)CCOCC2 [Pinoxaden]
Mean % Phytotoxicity ([5]; Table 11: pinoxaden 7.5 or 15 g/ha, compounds A-D or tris(2-ethylhexyl)phosphate 0.2% by volume): 4.25% | Mean % Phytotoxicity ([5]; Table 12: pinoxaden 7.5 or 15 g/ha, compound E or tris(2-ethylhexyl)phosphate 0.2% by volume): 0% | Mean percentage kill, Mean across species [6]: 2.9 C % | Mean percentage kill SETARIA VIRIDIS (Setaria viridis): 0% | Mean percentage kill LOLIUM PERENNE (Lolium perenne): 1.7% | Mean percentage kill AVENA FATUA (Avena fatua): 10.0% | Mean percentage kill ALOPECURUS MYOSUROIDES (Alopecurus myosuroides): 0%
